Tested on: m-IMCD3 cells
Experiment: Inhibition of PGE2-stimulated in vitro cyst formation in m-IMCD3 cells
Type: cell-based, mouse
Conditions: 3 μM; mean cyst area, 100% for (DMSO + PGE2) and 0% for DMSO control; 6 days of culture
In short: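 m-IMCD3 cells embedded in collagen I/Matrigel 3D culture; 18–24 h after plating, compound (0.1% DMSO final) plus PGE2 (100 nM final) added, replenished after 2 or 3 days. After 6 days, z-stack imaging gave mean cyst area, normalized to DMSO+PGE2 (100%) and DMSO (0%).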

First: CC(C(=O)N1CCc2nc(N3C4CCC3CNC4)sc2C1)C(C)(C)C (single isomer, unassigned) [Example 159, 1-(2-(3,8-diazabicyclo[3.2.1]octan-8-yl)-6,7-dihydrothiazolo[5,4-c]pyridin-5(4H)-yl)-2,3,3-trimethylbutan-1-one]
Second: CC(O)(C(=O)N1CCc2nc(N3C4CCC3CNC4)sc2C1)C1CCCC1 (single isomer, unassigned) [Example 255, 1-(2-(3,8-diazabicyclo[3.2.1]octan-8-yl)-6,7-dihydrothiazolo[5,4-c]pyridin-5(4H)-yl)-2-cyclopentyl-2-hydroxypropan-1-one]
The “% Cyst area after incubation with 3 μM test compound” value of the first is higher: 0% for the first, −5% for the second.

Same assay, conditions: Mus musculus, mIMCD3, 144 h, 3 μM; mean cyst area, 100% for (DMSO + PGE2) and 0% for DMSO control; 6 days of culture; read-out: % Cyst area after incubation with 3 μM test compound

Compared with `CC(C)(C#N)CC(=O)N1CCc2nc(N3C4CCC3CNC4)sc2C1` [Example 178, 4-(2-(3,8-diazabicyclo[3.2.1]octan-8-yl)-6,7-dihydrothiazolo[5,4-c]pyridin-5(4H)-yl)-2,2-dimethyl-4-oxobutanenitrile], `CC(C)(CC(=O)N1CCc2nc(N3C4CCC3CNC4)sc2C1)C(F)F` [Example 175, 1-(2-(3,8-diazabicyclo[3.2.1]octan-8-yl)-6,7-dihydrothiazolo[5,4-c]pyridin-5(4H)-yl)-4,4-difluoro-3,3-dimethylbutan-1-one] is lower in activity at 3 µM: 24% for the first, -5% for the second.

First: O=C(c1ccc(CC(F)(F)F)cc1)N1CCc2nc(N3C4CCC3CNC4)sc2C1 [Example 232, (2-(3,8-diazabicyclo[3.2.1]octan-8-yl)-6,7-dihydrothiazolo[5,4-c]pyridin-5(4H)-yl)(4-(2,2,2-trifluoroethyl)phenyl)methanone]
Second: N#Cc1ccc(C(=O)N2CCc3nc(N4C5CCC4CNC5)sc3C2)cc1 [Example 239, 4-(2-(3,8-diazabicyclo[3.2.1]octan-8-yl)-4,5,6,7-tetrahydrothiazolo[5,4-c]pyridine-5-carbonyl)benzonitrile]
The activity at 3 µM of the first is higher: 5% for the first, -2% for the second.

Going from `O=C(CC12CCC(CC1)C2)N1CCc2nc(N3C4CCC3CNC4)sc2C1` [Example 160, 1-(2-(3,8-diazabicyclo[3.2.1]octan-8-yl)-6,7-dihydrothiazolo[5,4-c]pyridin-5(4H)-yl)-2-(bicyclo[2.2.1]heptan-1-yl)ethan-1-one] to `CC(C)C(C)(C)C(=O)N1CCc2nc(N3C4CCC3CNC4)sc2C1` [Example 161, 1-(2-(3,8-diazabicyclo[3.2.1]octan-8-yl)-6,7-dihydrothiazolo[5,4-c]pyridin-5(4H)-yl)-2,2,3-trimethylbutan-1-one], the activity at 3 µM falls from -2% to -3%.

Compared with `O=C(c1ccccc1C(F)F)N1CCc2nc(N3C4CCC3CNC4)sc2C1` [Example 218, (2-(3,8-diazabicyclo[3.2.1]octan-8-yl)-6,7-dihydrothiazolo[5,4-c]pyridin-5(4H)-yl)(2-(difluoromethyl)phenyl)methanone], `CC(F)(F)c1ccccc1C(=O)N1CCc2nc(N3C4CCC3CNC4)sc2C1` [Example 223, (2-(3,8-diazabicyclo[3.2.1]octan-8-yl)-6,7-dihydrothiazolo[5,4-c]pyridin-5(4H)-yl)(2-(1,1-difluoroethyl)phenyl)methanone] is higher in activity at 3 µM: 11% for the first, 14% for the second.

First: O=C(c1ccc(F)cn1)N1CCc2nc(N3C4CCC3CNC4)sc2C1 [Example 202, (2-(3,8-diazabicyclo[3.2.1]octan-8-yl)-6,7-dihydrothiazolo[5,4-c]pyridin-5(4H)-yl)(5-fluoropyridin-2-yl)methanone]
Second: O=C(c1cccnc1Cl)N1CCc2nc(N3C4CCC3CNC4)sc2C1 [Example 224, (2-(3,8-diazabicyclo[3.2.1]octan-8-yl)-6,7-dihydrothiazolo[5,4-c]pyridin-5(4H)-yl)(2-chloropyridin-3-yl)methanone]
The activity at 3 µM of the first is lower: -4% for the first, 22% for the second.

Compared with `O=C(N[C@H]1CCOc2ccccc21)N1CCc2nc(N3CCNCC3)sc2C1` [Example 296, (S)—N-(chroman-4-yl)-2-(piperazin-1-yl)-6,7-dihydrothiazolo[5,4-c]pyridine-5(4H)-carboxamide], `CC(C)(C)CC(=O)N1CCc2nc(N3CCNCC3)sc2C1` [Example 274, 3,3-dimethyl-1-(2-(piperazin-1-yl)-6,7-dihydrothiazolo[5,4-c]pyridin-5(4H)-yl) butan-1-one] is lower in activity at 3 µM: 33% for the first, 14% for the second.

First: CC(C)(C)[C@@H](O)C(=O)N1CCc2nc(N3C4CCC3CNC4)sc2C1 [Example 176, (2R)-1-(2-(3,8-diazabicyclo[3.2.1]octan-8-yl)-6,7-dihydrothiazolo[5,4-c]pyridin-5(4H)-yl)-2-hydroxy-3,3-dimethylbutan-1-one]
Second: O=C(c1cc2ccccc2o1)N1CCc2nc(N3C4CCC3CNC4)sc2C1 [Example 185, (2-(3,8-diazabicyclo[3.2.1]octan-8-yl)-6,7-dihydrothiazolo[5,4-c]pyridin-5(4H)-yl)(benzofuran-2-yl)methanone]
The activity at 3 µM of the first is higher: 12% for the first, -2% for the second.

Same assay, conditions: Mus musculus, mIMCD3, 144 h, 10 μM; mean cyst area, 100% for (DMSO + PGE2) and 0% for DMSO control; 6 days of culture; read-out: % Cyst area after incubation with 10 μM test compound

Going from `COc1cc(F)ccc1CCC(=O)N1CCc2nc(N3C4CCC3CNC4)sc2C1` [Example 147, 1-(2-(3,8-diazabicyclo[3.2.1]octan-8-yl)-6,7-dihydrothiazolo[5,4-c]pyridin-5(4H)-yl)-3-(4-fluoro-2-methoxyphenyl)propan-1-one] to `Cc1cc(CC(=O)N2CCc3nc(N4C5CCC4CNC5)sc3C2)cc(C)n1` [Example 153, 1-(2-(3,8-diazabicyclo[3.2.1]octan-8-yl)-6,7-dihydrothiazolo[5,4-c]pyridin-5(4H)-yl)-2-(2,6-dimethylpyridin-4-yl)ethan-1-one], the activity at 10 µM rises from 9% to 31%.

Going from `CN1CC2CCC(C1)N2c1nc2c(s1)CN(C(=O)NC1CCC(F)(F)CC1)CC2` [Example 77, N-(4,4-difluorocyclohexyl)-2-(3-methyl-3,8-diazabicyclo[3.2.1]octan-8-yl)-6,7-dihydrothiazolo[5,4-c]pyridine-5(4H)-carboxamide] to `O=C(NC1CCCCC1)N1CCc2nc(N3C4CCC3CNC4)sc2C1` [Example 52], the activity at 10 µM falls from 1% to -6%.

Going from `O=S(=O)(CC1CCCC1)N1CCc2nc(N3C4CCC3CNC4)sc2C1` [Example 107, 2-(3,8-diazabicyclo[3.2.1]octan-8-yl)-5-((cyclopentylmethyl)sulfonyl)-4,5,6,7-tetrahydrothiazolo[5,4-c]pyridine] to `CC1(C(=O)N2CCc3nc(N4C5CCC4CNC5)sc3C2)CCCC1` [Example 150, (2-(3,8-diazabicyclo[3.2.1]octan-8-yl)-6,7-dihydrothiazolo[5,4-c]pyridin-5(4H)-yl)(1-methylcyclopentyl)methanone], the activity at 10 µM rises from -16% to 1%.

First: CC[C@@H](C)C(=O)N1CCc2nc(N3C4CCC3CNC4)sc2C1 [Example 16, (2R)-1-(2-(3,8-diazabicyclo[3.2.1]octan-8-yl)-6,7-dihydrothiazolo[5,4-c]pyridin-5(4H)-yl)-2-methylbutan-1-one]
Second: CC(C)C(=O)N1CCc2nc(N3C4CCC3CNC4)sc2C1 [Example 20, 1-(2-(3,8-diazabicyclo[3.2.1]octan-8-yl)-6,7-dihydrothiazolo[5,4-c]pyridin-5(4H)-yl)-2-methylpropan-1-one]
The activity at 10 µM of the first is lower: -2% for the first, 9% for the second.

Work on `O=C(CC1CCCC1)N1Cc2sc(N3C4CCC3CNC4)nc2C2(CCOCC2)C1` [Example 266, 1-(2′-(3,8-diazabicyclo[3.2.1]octan-8-yl)-2,3,5,6-tetrahydro-4′H-spiro[pyran-4,7′-thiazolo[5,4-c]pyridin]-5′(6′H)-yl)-2-cyclopentylethan-1-one] yielded an activity at 10 µM of 40%.
